{"source": "patent US7572753B2", "about": "(priority 2005, dated 2009)", "system": "Pyricularia oryzae", "format": "in vivo", "conditions": "300 ppm, greenhouse foliar application spray on rice (var. Lemont) plants, inoculated within 24 hours from spraying", "data": [{"smiles": "N#CCn1nnc(-c2ccccc2)n1", "note": "[Example 1, 5-phenyl-2H-tetrazole-2-acetonitrile]", "values": [{"measurement": "Percent (%) disease control, Rice Blast", "value": 70, "unit": "%"}]}]}
